Measured values published in patent US20090226494A1, “PATHOGEN - CONTROLLING PRODUCTS” (priority 2005, published 2009).

Legend:
[1] = tested on: A431 human skin cell line; assay: Hand gel cytotoxicity, SRB assay; type: cell-based; conditions: 10% concentration (highest), 24 hours
Description: Methods: The human squamous epithelial cell line A431 was cultured in RPMI 1640 medium supplemented with 10% FCS, 2 g/L sodium bicarbonate and 2 mM L-glutamine (complete medium), in 75 cm^2 tissue culture flasks in a humidified incubator at 37° C. with a 5% CO2 in air atmosphere. For the cytotoxicity experiments, A431 cells were plated into the wells of flat-bottom 96 well plates at 5×10^4 cells per well in 200 μl of complete medium and allowed to grow to confluence. On the day of the experiment the depleted culture medium was aspirated and replaced with 100 μl of fresh complete medium. Samples of the hand gels were diluted in complete medium to double the concentrations shown in the Figure and 100 μl of each samples was added to the cells which were then cultured for a further 24 hours. After microscopic examination, the cells were fixed and stained to quantitatively determine cytotoxicity as described below. The sulforhodamine B (SRB) cytotoxicity assay was developed and validated at the National Cancer Institute. […] After washing twice with tap water the remaining stain was dissolved in 10 mM Tris base and the optical density (O.D.) of the wells was measured on a Dynatech Multiplate ELISA reader at 540 nm. The percent cell survival was calculated by dividing the test O.D. by control O.D. and multiplying by 100.

HT-29 cells = assay: Sulforhodamine (SRB) cytotoxicity assay and microscopy; type: cell-based, human; conditions: 24 and 48 hours
From the text: (§1) The three copper-containing antimicrobial solutions—CuPC33, CuAL42 and CuWB50—were provided and each contained 30.43 g/L of copper ion. […] Two human cell lines were used for this example: HT-29, an intestinal epithelial cell line, and U937, a monocytic lymphoma. […] After examination by microscopy the cells were then fixed and stained to quantitatively determine cytotoxicity using a sulforhodamine (SRB) cytotoxicity assay, developed and validated at the National Cancer Institute. […] All test cultures were in triplicate.

U937 cells = assay: as above; type: cell-based, human; conditions: 24 and 48 hours
From the text: as §1

ACCB = conditions: 40 and 150 ppm
MRSA = assay: Time kill curves in RPMI-1460 medium; type: cell-based, Staphylococcus aureus; conditions: 20 and 150 ppm

SMILES	reduction of cell survival / cells killed [1]	cytotoxicity (HT-29 cells; 1-100 ppm, 5% or 25% FCS)	cytotoxicity (HT-29 cells; 1000 ppm)	cytotoxicity (U937 cells; 1-100 ppm, 5% or 25% FCS)	cytotoxicity (U937 cells; 1000 ppm)	activity in time kill curves (ACCB)	activity in time kill curves (MRSA)
CCO [ethanol]	around 50%	–	–	–	–	–	–
O=S(=O)([O-])[O-].[Cu+2] [copper sulphate]	–	not significantly cytotoxic	very toxic	not significantly cytotoxic	very toxic	little initial activity but the bacteria recovered	some activity but the bacteria recovered
